Measurements reported in the NIST ThermoML archive (doi:10.1016/j.jct.2011.05.033).
“And” between values parts separate entries of the source, which are not always exact repeats. Equal values may be shown once.

Experiments:
[1] = xn = mol fraction of the nth substance listed; settings: 298.15 K, 101 kPa, Liquid, Vibrating tube method
[2] = excess molar enthalpy (molar enthalpy of mixing); xn = mol fraction of the nth substance listed; settings: 298.15 K, 101 kPa, Liquid, Isothermal Titration Calorimeter

CO [methanol] + CCCC[n+]1ccn(C)c1.O=S(=O)([N-]S(=O)(=O)C(F)(F)F)C(F)(F)F
Settings	mass density [kg/m3]
[1], x2 = 0	792.92

CO [methanol] + CCn1cc[n+](C)c1.O=S(=O)([N-]S(=O)(=O)C(F)(F)F)C(F)(F)F
Settings	mass density [kg/m3]
[1], x2 = 0	794.62

CCCCCCCCCCn1cc[n+](C)c1.O=S(=O)([N-]S(=O)(=O)C(F)(F)F)C(F)(F)F + CO
Settings	excess molar enthalpy [kcal/mol]	mass density [kg/m3]
[1], x1 = 0.0001	–	789.6
[1], x1 = 0.0233	–	883.6
[1], x1 = 0.0513	–	963.28
[1], x1 = 0.1054	–	1054.89
[1], x1 = 0.1417	–	1094.51
[1], x1 = 0.1679	–	1115.13
[1], x1 = 0.2161	–	1147.23
[1], x1 = 0.2452	–	1163.25
[1], x1 = 0.297	–	1183.51
[1], x1 = 0.4686	–	1228.19
[1], x1 = 0.5186	–	1236.02
[1], x1 = 0.762	–	1263.65
[1], x1 = 0.7868	–	1264.97
[1], x1 = 0.8756	–	1271.49
[1], x1 = 0.9503	–	1275.73
[1], x1 = 1	–	1278.57
[2], x2 = 0.0171	0.0146	–
[2], x2 = 0.0336	0.028	–
[2], x2 = 0.0496	0.0402	–
[2], x2 = 0.0651	0.0511	–
[2], x2 = 0.08	0.0614	–
[2], x2 = 0.0945	0.0705	–
[2], x2 = 0.1086	0.0789	–
[2], x2 = 0.1222	0.0863	–
[2], x2 = 0.1354	0.0932	–
[2], x2 = 0.1482	0.0994	–
[2], x2 = 0.1606	0.105	–
[2], x2 = 0.1727	0.11	–
[2], x2 = 0.1844	0.115	–
[2], x2 = 0.1958	0.119	–
[2], x2 = 0.2069	0.123	–

CCCCCC[n+]1ccn(C)c1.O=S(=O)([N-]S(=O)(=O)C(F)(F)F)C(F)(F)F + CCCCCCO
[2]
Settings	excess molar enthalpy [kcal/mol]
x2 = 0.0045	0.00956
x2 = 0.0089	0.0189
x2 = 0.0132	0.0282
x2 = 0.0176	0.037
x2 = 0.0219	0.0459
x2 = 0.0261	0.0545
x2 = 0.0304	0.0629
x2 = 0.0345	0.071
x2 = 0.0387	0.0791
x2 = 0.0428	0.0868
x2 = 0.0469	0.0946
x2 = 0.0509	0.102
x2 = 0.0549	0.109
x2 = 0.0589	0.117
x2 = 0.0629	0.124

CCCCCC[n+]1ccn(C)c1.O=S(=O)([N-]S(=O)(=O)C(F)(F)F)C(F)(F)F + CCCCO
[2]
Settings	excess molar enthalpy [kcal/mol]
x2 = 0.0064	0.0141
x2 = 0.0127	0.0277
x2 = 0.019	0.0411
x2 = 0.0252	0.0543
x2 = 0.0313	0.0672
x2 = 0.0373	0.0796
x2 = 0.0432	0.092
x2 = 0.0491	0.104
x2 = 0.0549	0.116
x2 = 0.0606	0.127
x2 = 0.0663	0.138
x2 = 0.0719	0.149
x2 = 0.0774	0.16
x2 = 0.0829	0.171
x2 = 0.0883	0.181

CO [methanol] + CCCCCC[n+]1ccn(C)c1.O=S(=O)([N-]S(=O)(=O)C(F)(F)F)C(F)(F)F
Settings	mass density [kg/m3]
[1], x2 = 0	792.66

CO [methanol] + CCCCCCCCn1cc[n+](C)c1.O=S(=O)([N-]S(=O)(=O)C(F)(F)F)C(F)(F)F
Settings	mass density [kg/m3]
[1], x2 = 0	792.64

CCCCCCCCn1cc[n+](C)c1.O=S(=O)([N-]S(=O)(=O)C(F)(F)F)C(F)(F)F + CO
Settings	excess molar enthalpy [kcal/mol]	mass density
[1], x1 = 0.0001	–	791.05 kg/m3
[1], x1 = 0.0218	–	882.47 kg/m3
[1], x1 = 0.0599	–	986.86 kg/m3
[1], x1 = 0.0837	–	1031.65 kg/m3
[1], x1 = 0.1926	–	1153.62 kg/m3
[1], x1 = 0.2708	–	1198.9 kg/m3
[1], x1 = 0.3019	–	1213.08 kg/m3
[1], x1 = 0.5004	–	1267.25 kg/m3
[1], x1 = 0.8201	–	1308.01 kg/m3
[1], x1 = 0.8355	–	1308.78 kg/m3
[1], x1 = 0.989	–	1319.5 kg/m3
[1], x1 = 1	–	1320.55 kg/m3 and 1320.38 kg/m3
[2], x2 = 0.0153	0.0206	–
[2], x2 = 0.0302	0.0402	–
[2], x2 = 0.0446	0.0586	–
[2], x2 = 0.0586	0.076	–
[2], x2 = 0.0721	0.0923	–
[2], x2 = 0.0853	0.108	–
[2], x2 = 0.0982	0.122	–
[2], x2 = 0.1106	0.136	–
[2], x2 = 0.1228	0.149	–
[2], x2 = 0.1346	0.162	–
[2], x2 = 0.1461	0.173	–
[2], x2 = 0.1573	0.184	–
[2], x2 = 0.1682	0.195	–
[2], x2 = 0.1788	0.205	–
[2], x2 = 0.1892	0.214	–

CCCC[n+]1ccn(C)c1.O=S(=O)([N-]S(=O)(=O)C(F)(F)F)C(F)(F)F + CO
Settings	excess molar enthalpy [kcal/mol]	mass density [kg/m3]
[1], x1 = 0.0844	–	1054.48
[1], x1 = 0.1155	–	1109.91
[1], x1 = 0.1594	–	1168.72
[1], x1 = 0.1722	–	1182.69
[1], x1 = 0.264	–	1259.96
[1], x1 = 0.6327	–	1388.71
[1], x1 = 0.8245	–	1418.09
[1], x1 = 1	–	1436.29
[2], x2 = 0.0131	0.0218	–
[2], x2 = 0.0258	0.0423	–
[2], x2 = 0.0383	0.0617	–
[2], x2 = 0.0504	0.08	–
[2], x2 = 0.0622	0.0973	–
[2], x2 = 0.0737	0.114	–
[2], x2 = 0.0849	0.129	–
[2], x2 = 0.0959	0.144	–
[2], x2 = 0.1066	0.157	–
[2], x2 = 0.1171	0.171	–
[2], x2 = 0.1273	0.183	–
[2], x2 = 0.1373	0.195	–
[2], x2 = 0.147	0.206	–
[2], x2 = 0.1566	0.216	–
[2], x2 = 0.1659	0.226	–

CCn1cc[n+](C)c1.O=S(=O)([N-]S(=O)(=O)C(F)(F)F)C(F)(F)F + CCCCO
[2]
Settings	excess molar enthalpy [kcal/mol]
x2 = 0.0051	0.0103
x2 = 0.0102	0.0203
x2 = 0.0152	0.0304
x2 = 0.0201	0.0399
x2 = 0.025	0.0495
x2 = 0.0299	0.0586
x2 = 0.0347	0.0676
x2 = 0.0395	0.0765
x2 = 0.0442	0.0851
x2 = 0.0488	0.0935
x2 = 0.0535	0.102
x2 = 0.0581	0.11
x2 = 0.0626	0.118
x2 = 0.0671	0.125
x2 = 0.0715	0.133

CCCCCC[n+]1ccn(C)c1.O=S(=O)([N-]S(=O)(=O)C(F)(F)F)C(F)(F)F + CCO
[2]
Settings	excess molar enthalpy [kcal/mol]
x2 = 0.0095	0.0195
x2 = 0.0189	0.0383
x2 = 0.0281	0.0564
x2 = 0.0371	0.0739
x2 = 0.046	0.0907
x2 = 0.0547	0.107
x2 = 0.0632	0.123
x2 = 0.0716	0.138
x2 = 0.0798	0.152
x2 = 0.0879	0.166
x2 = 0.0959	0.18
x2 = 0.1037	0.193
x2 = 0.1114	0.206
x2 = 0.1189	0.218
x2 = 0.1263	0.23

CCn1cc[n+](C)c1.O=S(=O)([N-]S(=O)(=O)C(F)(F)F)C(F)(F)F + CCO
[2]
Settings	excess molar enthalpy [kcal/mol]
x2 = 0.0083	0.0143
x2 = 0.0165	0.0282
x2 = 0.0245	0.0416
x2 = 0.0324	0.0545
x2 = 0.0402	0.0669
x2 = 0.0479	0.0791
x2 = 0.0554	0.0908
x2 = 0.0628	0.102
x2 = 0.0702	0.113
x2 = 0.0773	0.124
x2 = 0.0844	0.134
x2 = 0.0914	0.144
x2 = 0.0983	0.154
x2 = 0.105	0.163
x2 = 0.1117	0.172

CO [methanol] + CCCCCCCCCCn1cc[n+](C)c1.O=S(=O)([N-]S(=O)(=O)C(F)(F)F)C(F)(F)F
Settings	mass density [kg/m3]
[1], x2 = 0	793.17

CCn1cc[n+](C)c1.O=S(=O)([N-]S(=O)(=O)C(F)(F)F)C(F)(F)F + CCCCCCO
[2]
Settings	excess molar enthalpy [kcal/mol]
x2 = 0.0036	0.00621
x2 = 0.0072	0.0117
x2 = 0.0107	0.0165
x2 = 0.0142	0.0206
x2 = 0.0177	0.0239
x2 = 0.0212	0.0265
x2 = 0.0246	0.0287

CCCCCC[n+]1ccn(C)c1.O=S(=O)([N-]S(=O)(=O)C(F)(F)F)C(F)(F)F + CO
Settings	excess molar enthalpy [kcal/mol]	mass density
[1], x1 = 0.0001	–	792.92 kg/m3
[1], x1 = 0.0002	–	792.66 kg/m3
[1], x1 = 0.0003	–	792.92 kg/m3
[1], x1 = 0.0711	–	1017.33 kg/m3
[1], x1 = 0.0868	–	1047.67 kg/m3
[1], x1 = 0.1772	–	1163.23 kg/m3
[1], x1 = 0.2176	–	1195.97 kg/m3
[1], x1 = 0.2695	–	1228.24 kg/m3
[1], x1 = 0.4991	–	1308.41 kg/m3
[1], x1 = 0.5488	–	1318.7 kg/m3
[1], x1 = 0.5851	–	1325.38 kg/m3
[1], x1 = 1	–	1371.91 kg/m3 and 1371.79 kg/m3
[2], x2 = 0.0147	0.0257	–
[2], x2 = 0.029	0.0503	–
[2], x2 = 0.0429	0.0738	–
[2], x2 = 0.0564	0.0962	–
[2], x2 = 0.0695	0.118	–
[2], x2 = 0.0823	0.138	–
[2], x2 = 0.0947	0.158	–
[2], x2 = 0.1068	0.176	–
[2], x2 = 0.1186	0.194	–
[2], x2 = 0.13	0.211	–
[2], x2 = 0.1412	0.228	–
[2], x2 = 0.1521	0.243	–
[2], x2 = 0.1627	0.258	–
[2], x2 = 0.1731	0.272	–
[2], x2 = 0.1832	0.286	–

CCn1cc[n+](C)c1.O=S(=O)([N-]S(=O)(=O)C(F)(F)F)C(F)(F)F + CO
Settings	excess molar enthalpy [kcal/mol]	mass density
[1], x1 = 0.0001	–	792.63 kg/m3
[1], x1 = 0.0732	–	1040.6 kg/m3
[1], x1 = 0.1082	–	1115.5 kg/m3
[1], x1 = 0.1385	–	1165.23 kg/m3
[1], x1 = 0.2145	–	1258.12 kg/m3
[1], x1 = 0.2485	–	1289.7 kg/m3
[1], x1 = 0.2968	–	1325.28 kg/m3
[1], x1 = 0.3388	–	1351.25 kg/m3
[1], x1 = 0.6002	–	1451 kg/m3
[1], x1 = 0.6355	–	1459.63 kg/m3
[1], x1 = 0.7925	–	1487.15 kg/m3
[1], x1 = 0.837	–	1497.28 kg/m3
[1], x1 = 1	–	1518.63 kg/m3 and 1518.58 kg/m3
[2], x2 = 0.0118	0.0158	–
[2], x2 = 0.0233	0.0311	–
[2], x2 = 0.0346	0.0454	–
[2], x2 = 0.0456	0.0593	–
[2], x2 = 0.0563	0.0722	–
[2], x2 = 0.0668	0.0848	–
[2], x2 = 0.0771	0.0966	–
[2], x2 = 0.0872	0.108	–
[2], x2 = 0.097	0.119	–
[2], x2 = 0.1067	0.129	–
[2], x2 = 0.1161	0.139	–
[2], x2 = 0.1253	0.148	–
[2], x2 = 0.1343	0.157	–
[2], x2 = 0.1432	0.165	–
[2], x2 = 0.1519	0.173	–
